Literature values, collected in patent US20110287113A1, “TREATMENT OF PSORIASIS” (Insense Limited, priority 2009, published 2011).

Columns and labels:
[1] = under normal conditions
[2] = under normal conditions; remark: listed apart in the source
[3] = at 25° C.

Structure (SMILES) | time to total (100%) decomposition [2] | further results
[N]=O [NO, nitric oxide] |  | maximum solubility in water [1]: approximately 1.7 mM
N[C@@H](CSN=O)C(=O)O [S-nitrosocysteine] | within minutes | 
N[C@@H](CCC(=O)N[C@@H](CSN=O)C(=O)NCC(=O)O)C(=O)O [S-nitrosoglutathione] | hours/days | 
O=NO [nitrite] |  | pKa [3]: 3.4
